Data as given in patent publication US20240189292A1 (priority 2021, published 2024).
Like-named read-outs stand apart in the source and are kept apart here.

Experiment: in vivo
Set-up: species or system SD rats
Conditions: male, SD, rat, plasma; for AUC: read-out: Area Under Curve AUC; for clearance: read-out: Clearance Rate Cl; for C0: read-out: Initial Concentration C0; for Vd: read-out: Volume of Distribution Vd; for bioavailability: read-out: Bioavailability F; for Cmax: read-out: Peak Concentration Cmax
[1] = iv, 0.2 mg/kg, read-out: Half-life T1/2 (converted)
[2] = po, 1 mg/kg, read-out: Peak Concentration Time T1/2 (converted)

SMILES	AUC (iv, 0.2 mg/kg)	clearance (iv, 0.2 mg/kg)	half-life [1]	C0 (iv, 0.2 mg/kg)	Vd (iv, 0.2 mg/kg)	AUC (po, 1 mg/kg)	bioavailability (po, 1 mg/kg)	Cmax (po, 1 mg/kg)	half-life [2]	AUC (intravenous, 0.2 mg/kg)	clearance (intravenous, 0.2 mg/kg)	half-life (intravenous, 0.2 mg/kg, read-out: Half-life T1/2 (converted))	C0 (intravenous, 0.2 mg/kg)	Vd (intravenous, 0.2 mg/kg)
C[C@H](NC1=CC(=O)C2(CCCC2)C(=O)N1)c1cccc(Cl)c1 [Compound 7]	3.53 µM·h	2.93 mL/min/kg	3.86 h	3700 nM	0.885 L/kg	14.8 µM·h	88.1%	2140 nM	5.96 h					
C[C@H](NC1=CC(=O)C2(CCCC2)C(=O)N1)c1cc(F)ccc1F [Compound 10]						7.93 µM·h		1310 nM	4.83 h	1.29 µM·h	6 mL/min/kg	6.37 h	1460 nM	2.7 L/kg
C[C@H](NC1=CC(=O)C2(CCCC2)C(=O)N1)c1ccccc1 [Compound 3]	1.33 µM·h	8.11 mL/min/kg	2.31 h	773 nM	1.6 L/kg	7.32 µM·h	110%	1380 nM	4.81 h					
Cc1ccc(F)c([C@H](C)NC2=CC(=O)C3(CCCC3)C(=O)N2)c1 [Compound 9]	2.11 µM·h	4.78 mL/min/kg	5.93 h	4820 nM	1.73 L/kg	8.11 µM·h	76.7%	1940 nM	7.35 h					
